The numbers were not newly measured in patent US9333184B2, “Composition and method for affecting male and female hormone levels” (NOKOMIS RESEARCH, INC., priority 2011, dated 2016), which cites them from elsewhere.

Molecules are shown by their SMILES.

The conditions of the series: for ingested amount metabolically degraded: intestine to blood stream.

Take `NCCCNCCCCNCCCN` [spermine]: the “ingested amount metabolically available” value is listed as “about 70%” and the “ingested amount metabolically degraded” value is listed as 30%.

For the compound `NCCCCNCCCN` [spermidine], the “ingested amount metabolically available” value was “about 70%” and the “ingested amount metabolically degraded” value is listed as 30%.
